Experimental data published in US20040248898A1, “Remedies for arteriosclerosis” (priority 2001, published 2004).
Read-outs that look alike come from different tables or passages of the source.

Experiments:
human group V sPLA2 [1] = target: T1, human group V sPLA2 (Homo sapiens, UniProt P39877); test: Chromogenic assay for inhibitory activity, group V sPLA2 inhibition tests; format: biochemical
T1 construct: made in house; host or cells: CHO cells, stably transfected (pSVL vector); culture supernatant used
T1 sequence (P39877 21-138): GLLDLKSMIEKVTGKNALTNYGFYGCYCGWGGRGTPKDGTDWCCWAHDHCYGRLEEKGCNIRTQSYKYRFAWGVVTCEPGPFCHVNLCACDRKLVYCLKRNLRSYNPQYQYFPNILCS
Text: (§1) A. Preparation of Cells Expressing Human Group V or X sPLA2 and Preparation of the Culture Supernatant Thereof
(§2) cDNA sequence encoding human group V or X sPLA2 (Chen et al., J. Biol. Chem, 1994, 269, 2365-2368; and Cupillard et al., J. Biol. Chem, 1997, 272, 15745-15752) was inserted in forward direction downstream the promoter of an expression vector for mammal cells, pSVL SV40 Late Promoter Expression Vector (Amersham Pharmacia Biotech). The expression vector was transfected into CHO host cells using a Lipofect AMINE regent (Gibco BRL) according to the instructions of the manufacturer to provide CHO cells stably expressing human group V or X sPLA2. The cells were incubated in a-MEM medium containing 10% fetal calf serum for 3 days, and the culture supernatant was used to determine the activity of the enzymes.
(§3) B. Assay for Inhibitory Activity
(§4) The following chromogenic assay is used to identify and evaluate inhibitors of group V or X sPLA2. The assay has been adapted for high volume screening using 96 well microtiter plates. A general description of this assay is found in the article, “Analysis of Human Synovial Fluid Phospholipase A2 on Short Chain Phosphatidylcholine-Mixed Micelles: Development of a Spectrophotometric Assay Suitable for a Microtiterplate Reader”, by Laure. J. Reynolds, Lori L. Hughes and Edward A Dennis, Analytical Biochemistry, 204, pp 190-197, 1992.
(§5) A test compound (or a solvent blank) was added according to the predetermined arrangement of the plate, and diheptanoyl thio PC (1 mM) was reacted with human group V or X sPLA2 in the presence of Triton X-100 (0.3 mM), 5,5′-dithiobis-(2-nitrobenzoic acid) (125 μM) in a Tris buffer (25mM, pH7.3), CaCl2 (10 mM), KCl (100 mM), bovine serum albumin. Absorbance at 405 nm is read to estimate the inhibitory activity.
(§6) The reaction with human group V sPLA2 was performed in 40 μl/well at 40° C. for 45 minutes, and the reaction with human group X sPLA2 was performed in 15 μl/well at 40° C. for 30 minutes.

human group X sPLA2 [2] = target: T2, human group X sPLA2 (Homo sapiens, UniProt O15496); test: Chromogenic assay for inhibitory activity, group X sPLA2 inhibition tests; format: biochemical; design: made in house; host or cells: CHO cells, stably transfected (pSVL vector); culture supernatant used
T2 sequence (O15496 43-165): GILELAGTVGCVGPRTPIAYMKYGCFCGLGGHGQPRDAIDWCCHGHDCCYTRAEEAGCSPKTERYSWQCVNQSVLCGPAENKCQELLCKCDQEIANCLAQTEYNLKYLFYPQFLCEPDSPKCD
Text: as §1, §2, §3, §4, §5, §6

human group X sPLA2 [3] = target: T2, human group X sPLA2; test: Fatty acid release from isolated human lipoproteins induced by group X sPLA2; format: biochemical; settings: agent 10 μmol/L, added with sPLA2; arachidonic acid from LDL (FIG. 2)
Method: LDL and HDL were isolated from human plasma by ultracentrifugation (Havel, et al., J. Clin. Invest. 34, 1345-1353 (1955)). Human group IB, IIA and X sPLA2s (0.5 nmol/L to 500 nmol/L) were reacted with LDL and HDL (0.35-1 mg/ml) at 37° C. in a solution containing 12.5 mmol/L Tris-HCL buffer (pH 8.0), 125 mg/L bovine serum albumin, and 1 mmol/L calcium chloride. The fatty acids released from the lipoproteins were extracted according to the method of Dole (Dole, et al., J. Biol. Chem. 235, 2595-2599 (1960)), and were labeled with 9-anthryldiazomethane by the known method (Hanasaki, et al., J. Biol. Chem. 274, 34203-34211 (1999)). Then, the released fatty acids were determined by detecting fluorescence of the labeled products (fatty acids) eluted from high performance liquid chromatography (HPLC) on reverse-phase column (LichroCART 125-4 Superspher 100 RP-18 columnmol/Merck). In order to examine does-dependent release of fatty acids induced by each sPLA2, the lipoprotein was reacted with 0.5, 5, 50, and 500 nmol/L group X sPLA2, and 50 and 500 nmol/L group IB and IIA sPLA2 for 60 minutes. Further, in order to examine time-dependent fatty acid release induced by sPLA2, each 50 nmol/L sPLA2 was used, and the change in the release with time course was traced during the period time of 4 hours after the sPLA2 addition. In the experiment for determining the inhibitory activity of a sPLA2 inhibitor (indoxam; Yokota, et al., Biochim. Biophys. Acta 1438, 213-222 (1999)), a cyclooxygenase (COX) inhibitor (indomethacin) or a 5-lipoxygenase (5-LOX) inhibitor (AA-861; 2,3,5-trimethyl-6-(12-hydroxy-5,10-dodecadiynyl)-1,4-benzoquinone (Yoshimoto, et al., Biochem. Biophys. Acta. 713, 470-473 (1982)), those agents were added to the reaction giving a final concentration of 10 μmol/L, virtually simultaneously with the addition of sPLA2.

human group X sPLA2 [4] = target: T2, human group X sPLA2; test: Negative charge of isolated human lipoproteins (agarose gel electrophoresis) after group X sPLA2; format: biochemical; settings: agent 10 μmol/L; LDL and HDL, 50 nmol/L sPLA2
Method: LDL and HDL were isolated from human plasma by ultracentrifugation (Havel, et al., J. Clin. Invest. 34, 1345-1353 (1955)). Human group IB, IIA and X sPLA2s (50 nmol/L) and CuSO4 (20 μmol/L) were reacted with LDL and HDL (1 mg/ml) at 37° C. for 3, 6, and 24 hours in a solution containing 12.5 mmol/L Tris-HCL buffer (pH 8.0), 125 mg/L bovine serum albumin, and 1 mmol/L calcium chloride. Then, a 1 μg sample of LDL and a 2 μg sample of HDL were electrophoresed on agarose gel (Helena Laboratories, TITAN GEL Lipoprotein; 90V, 25 minutes). After the electrophoresis, the gel was dried at 50 to 60° C. for about 1 hour, stained with 6 ml of a stain solution (Helena Laboratories, Fat Red 7B agarose solution) for about 3 minutes, and then decolorized with 25 ml of a decolorizing solution (70% methanol). In the experiment for determining the activity of a sPLA2 inhibitor (indoxam), a COX inhibitor (indomethacin) or a 5-LOX inhibitor (AA-861), those agents were added to the reaction giving a final concentration of 10 μmol/L, virtually simultaneously with the addition of sPLA2.

human group V sPLA2 [5] = target: T1, human group V sPLA2; test: Degeneration (negative charge, agarose gel electrophoresis) of isolated human lipoproteins by group V sPLA2; format: biochemical; settings: agent 10 μmol/L; LDL and HDL, 50 nmol/L sPLA2
Method: LDL and HDL were isolated from human plasma by ultracentrifugation (Havel, et al., J. Clin. Invest. 34, 1345-1353 (1955)). Human group IIA and V sPLA2s (50 nmol/L) were reacted with LDL and HDL (1 mg/ml) at 37° C. for 3, 6, and 24 hours in a solution containing 12.5 mmol/L Tris-HCL buffer (pH 8.0), 125 mg/L bovine serum albumin, and 1 mmol/L calcium chloride, and then 1 μg of the LDL and 2 μg of the HDL were spotted on an agarose gel (Helena Laboratories, TITAN GEL Lipoprotein), followed by being electrophoresed at 90V for 25 minutes. After the electrophoresis, the gels were dried at 50 to 60° C. for about one hour, stained with 6 ml of a stain solution (Helena Laboratories, Fat Red 7B agarose solution) for about three minutes, and then decolorized with 25 ml of a decolorizing solution (70% methanol).

[6] = system: mouse peritoneal macrophages; test: Uptake of LDL into mouse peritoneal macrophages induced by group X sPLA2 (Oil Red O stain); format: cell-based; settings: agent 10 μmol/L; 0.2 mg/ml LDL, 50 nmol/L group X sPLA2, 48 hours
Method: C57BL/6J mice (male, 8 weeks) were injected peritoneally with 2 ml of a 4% thioglycollate solution, and, 4 days later, the cells from the peritoneal fluids were harvested. The cells were plated on a chamber slide, and incubated for 2 hours in the presence of the serum-free medium (BIO […]: X-VIVO 15). Then, non-adherent cells were removed by the washing procedure to prepare peritoneal macrophages. The cells were added with 0.2 mg/ml LDL (Sigma) and 50 nmol/L group X PLA2, and incubated in the serum-free medium for 48 hours. Uptake of LDL into macrophages were confirmed by immobilizing the cells with 4% formaldehyde for 20 minutes, and then staining the lipids with an Oil Red O stain solution.

human group V sPLA2 [7] = target: T1, human group V sPLA2; test: Fatty acid (linoleic acid) release from isolated human lipoproteins induced by group V sPLA2; format: biochemical; settings: agent 10 μmol/L; from LDL (FIG. 8)
Method: LDL and HDL were isolated from human plasma by ultracentrifugation (Havel, et al., J. Clin. Invest. 34, 1345-1353 (1955)). […] Biol. Chem. 235, 2595-2599 (1960)). The fatty acids were labeled with 9-anthryldiazomethane by the known method ([…], et al., J. Biol. Chem. 274, 34203-34211 (1999)), and then were determined by detecting fluorescence of the labeled products (fatty acids) eluted from high performance liquid chromatography (HPLC) on reverse-phase column (LichroCART 125-4 Superspher 100 RP-18 column, Merck).

[8] = diheptanoyl thio PC 1 mM, 40° C., 45 minutes, absorbance at 405 nm, read-out: IC50 group V sPLA2 inhibition
[9] = diheptanoyl thio PC 1 mM, 40° C., 30 minutes, absorbance at 405 nm, read-out: IC50 group X sPLA2 inhibition

SMILES	IC50 (human group V sPLA2 [1]; [8])	IC50 (human group X sPLA2 [2]; [9])	other results
CCc1c(C(=O)C(N)=O)c2c(OCC(=O)O)nc(C)cn2c1Cc1cccc(-c2ccccc2)c1 [Compound 1]	12 nM		
NC(=O)c1cccc2c1c1c(OCC(=O)O)cccc1n2Cc1cccc(Oc2ccccc2)c1 [Compound 9]	1 nM	13 nM	
NC(=O)c1cccc2c1c1c(OCC(=O)O)cccc1n2Cc1ccccc1 [Compound 23]	8 nM		
COc1ccc2c(c1)c(CC(=O)O)c(C)n2C(=O)c1ccc(Cl)cc1 [indomethacin]			Effect on fatty acid release induced by group X sPLA2 (human group X sPLA2 [3]): affected neither; Effect on lipoprotein degeneration (increase in negative charge) induced by group X sPLA2 (human group X sPLA2 [4]): affected neither; Effect on lipoprotein degeneration induced by group V sPLA2 (human group V sPLA2 [5]): not affected; Effect on group X sPLA2-induced uptake of LDL into the cells [6]: affected neither; Effect on linoleic acid release induced by group V sPLA2 (human group V sPLA2 [7]): not affected
CCCc1c(C(=O)C(N)=O)c2c(OCC(=O)O)nc(C)cn2c1Cc1ccc(F)cc1 [Compound 15]		17 nM	
NC(=O)c1cccc2c1c1c(OCC(=O)O)cccc1n2CC1CCCCC1 [Compound 8]	3 nM	3 nM	
CCc1c(CC(N)=O)c2c(OCC(=O)O)nc(C)cn2c1Cc1ccc(F)cc1 [Compound 13]		19 nM	
CCc1c(C(=O)C(N)=O)c2c(OCC(=O)O)nc(C)cn2c1Cc1ccccc1C1CCCC1 [Compound 14]		9 nM	
CCc1c(C(=O)C(N)=O)c2c(OCC(=O)O)nc(C)cn2c1Cc1ccccc1Cc1ccccc1 [Compound 2]	13 nM		
CCc1c(C(=O)C(N)=O)c2c(OCC(=O)O)nc(-c3ccccc3)cn2c1Cc1ccccc1 [Compound 3]	5 nM		
CCc1c(C(=O)C(N)=O)c2c(OCC(=O)O)nc(C)cn2c1Cc1ccc(-c2ccccc2)cc1 [Compound 12]		16 nM	
CCc1c(C(=O)C(N)=O)c2c(OCC(=O)O)cccn2c1Cc1ccccc1-c1ccccc1 [indoxam]			Effect on fatty acid release induced by group X sPLA2 (human group X sPLA2 [3]): inhibited; Effect on lipoprotein degeneration (increase in negative charge) induced by group X sPLA2 (human group X sPLA2 [4]): inhibited; Effect on lipoprotein degeneration induced by group V sPLA2 (human group V sPLA2 [5]): inhibited; Effect on group X sPLA2-induced uptake of LDL into the cells [6]: inhibited; Effect on linoleic acid release induced by group V sPLA2 (human group V sPLA2 [7]): inhibited
CCc1ccc(-c2ccccc2Cc2c(CC)c(C(=O)C(N)=O)c3c(OCC(=O)O)nc(C)cn23)s1 [Compound 21]	5 nM		
NC(=O)c1cccc2c1c1c(OCC(=O)O)ccc(F)c1n2Cc1ccccc1 [Compound 10]	7 nM	12 nM	
CCc1c(C(=O)C(N)=O)c2c(OCC(=O)O)cccc2n1Cc1ccccc1-c1ccccc1 [Compound 19]			IC50 (human group X sPLA2 [2]): 26 nM; IC50 (human group V sPLA2 [1]): 6 nM
CCc1c(C(=O)C(N)=O)c2c(OCC(=O)O)nc(C)cn2c1Cc1ccccc1-c1ccc(C)s1 [Compound 22]	13 nM		
NC(=O)c1cccc2c1c1c(OCC(=O)O)cc(-c3ccco3)cc1n2Cc1ccccc1 [Compound 11]	2 nM		
CC(Cc1ccc(O)c(O)c1)C(C)Cc1ccc(O)c(O)c1 (stereo not shown) [NDGA]			Effect on group X sPLA2-induced uptake of LDL into the cells [6]: affected neither
NC(=O)C1=CCCc2c1c1c(OCC(=O)O)cccn1c2Cc1ccccc1 [Compound 7]	2 nM		
CC1=C(C)C(=O)C(CCCCC#CCCCC#CCO)=C(C)C1=O [AA-861, 2,3,5-trimethyl-6-(12-hydroxy-5,10-dodecadiynyl)-1,4-benzoquinone]			Effect on fatty acid release induced by group X sPLA2 (human group X sPLA2 [3]): affected neither; Effect on lipoprotein degeneration (increase in negative charge) induced by group X sPLA2 (human group X sPLA2 [4]): affected neither
CCc1c(C(=O)C(N)=O)c2c(OCC(=O)O)nc(C)cn2c1Cc1ccccc1CC1CCCCC1 [Compound 20]	11 nM		
